Measured values published in patent publication US10028906B2, “Method and kit for treating a solid tumor and associated desmoplasia” (Rosalind Franklin Univ. of Medicine and Science, priority 2016, dated 2018).
“Also recorded” adds a separate entry of the source. Where no end group is shown, it is not given here.

Columns and labels:
[1] = in vivo toxicity study (body weight change); details: tumor-bearing mice
From the text: (§1) FIGS. 6-24 show the experimental protocol and results of in vivo studies of orthotopic tumors derived from the Murine FC1199 cell line and implanted into Kras and P53 mice.
Ascites formation is a marker of late stage pancreatic cancer and can predict mortality.

FC1199 orthotopic tumors [2] = experiment: in vivo FC1199 orthotopic tumors, tumor burden as pancreas weight; design: species or system mice; details: for tumor burden / tumor growth as measured by pancreas weight: orthotopic FC1199 tumors in mice, no day stated; for potentiation of the therapeutic effects of gemcitabine / chemotherapeutic agent in vivo: combination, pancreas weight, FIGS. 21 and 22
From the text: FIGS. 1-24 show the in vitro and in vivo studies of CCNp37 (SEQ ID NO. 37) (Peptide 2 in the FIGS.) and CCNp38 (SEQ ID NO. 38) (Peptide 1 in the FIGS.) alone or in combination with a chemotherapeutic agent gemcitabine in treating pancreatic cells or orthotopic tumors implanted in the pancreas of mice. Gemcitibine is an example of an approved small molecule chemotherapeutic agent that is used in the clinic for pancreatic cancer, other suitable chemotherapeutic or immunotherapeutic agents are, for example, Abraxane (Paclitaxel Albumin-stabilized Nanoparticle Formulation), Afinitor (Everolimus), Erlotinib Hydrochloride, Everolimus, 5-FU (Fluorouracil Injection), Fluorouracil Injection, Gemcitabine Hydrochloride, Gemzar (Gemcitabine Hydrochloride), Irinotecan Hydrochloride Liposome, Mitomycin C, Mitozytrex (Mitomycin C), Mutamycin (Mitomycin C), Onivyde (Irinotecan Hydrochloride Liposome), Paclitaxel Albumin-stabilized Nanoparticle Formulation, Sunitinib Malate, Sutent (Sunitinib Malate), and Tarceva (Erlotinib Hydrochloride) and combinations of the same. Other suitable drug combinations for treating pancreatic cancer includes: FOLFIRINOX, GEMCITABINE-CISPLATIN, GEMCITABINE-OXALIPLATIN, and OFF. Suitable drugs for treatment for gastroenteropancreatic neuroendocrine tumors: Lanreotide Acetate, and Somatuline Depot (Lanreotide Acetate).
as §1
FIGS. 18 and 19 show the protocol of a second in vivo experiment (Experiment 2).
(§2) FIGS. 21-24 show the protocol for the second invo experiment on the effectiveness of administering Peptides 1 and 2±gemcitabine. […] In FIG. 21, peptide 1 or 2 was delivered on day 11 of the study after tumor implantation and gemcitabine was delivered on day 14. […] Ascites formation is a marker of late stage pancreatic cancer and can predict mortality.

[3] = test system: Human MIA PaCa2-Luc, and Murine FC1199 pancreatic cancer cell lines; experiment: in vitro cancer cell growth in two pancreatic cancer cell lines; type: cell-based; details: FIGS. 2-5
From the text: (§3) Peptides were examined in two different pancreatic cancer cell lines to determine consistency of response. We sought to determine if there was efficacy of the peptide alone, or in combination with conventional chemotherapy, i.e., does it potentiate the effects of current therapy. The two cell lines used were Human MIA PaCa2-Luc, and Murine FC1199 (derived from tumors in KPC GEM mice).
(§4) The in vitro studies used human MIA PaCa2-Luc, and Murine FC1199 cell lines.

[4] = test system: MIA PaCa2-Luc cancer cells; experiment: in vitro proliferation of MIA PaCa2-Luc cancer cells; type: cell-based, Human; details: FIG. 2
From the text: as §3
(§5) While not wishing to be bound to any particular theory, it was hypothesized that the peptides might still be effective in blocking the formation and/or removing the formation of desmoplasia or tumor stroma associated with a solid tumor alone acting to prevent and or to treat cancer and as well to providing greater access of the chemotherapeutic or immunotherapeutic agent to the tumor. […] It is believed that many large, and smaller, molecule immunotherapeutic agents will not react with Peptides 1 and 2 and they may also be used in combination with one another.
as §4

FC1199 cells = experiment: in vitro FC1199 cell growth, gemcitabine repression; type: cell-based, Murine; details: FIGS. 3 and 5
From the text: as §3, §4

FC1199 orthotopic tumors [5] = experiment: in vivo FC1199 orthotopic tumors, matrix deposition (desmoplasia); design: species or system mice; details: no day stated
From the text: as §5, §1

FC1199 orthotopic tumors [6] = experiment: in vivo FC1199 orthotopic tumors, vessel number/vessel density (angiogenesis); design: species or system mice; details: no day stated
From the text: as §5

FC1199 orthotopic tumors [7] = experiment: in vivo FC1199 orthotopic tumors, ascites production; design: species or system mice
From the text: as §2

renal fibrosis = details: disclosed in U.S. Pat. No. 7,780,949; cited from earlier work

Which “toxicity (body weight change)” value [1] does the source give for “FSGVSSDGRSSTPH [Peptide 2, FSGVSSDGRSSTPH]” here?
The value was “non-toxic”.

Which “tumor burden / tumor growth as measured by pancreas weight” value (FC1199 orthotopic tumors [2]) does the source give for `Nc1ccn([C@@H]2O[C@H](CO)[C@@H](O)C2(F)F)c(=O)n1` [Gemcitabine, gemcitabine, reference compound] here?
The value was “produces a dose-dependent response to tumor burden”.

For “SDRSADPNNQTGIS [Peptide 1, Mouse analog with native cysteines replaced with serines]”, which “cancer growth / cell proliferation in vitro” value ([3]; agent alone) is on record?
Its value is “did not slow cancer growth in vitro; also recorded: do not have an effect in cell proliferation”.

What about the “potentiation of the effects of gemcitabine in reducing cancer growth in vitro” value ([3]; combination with gemcitabine) of the same molecule?
Its value is “did little or nothing to potentiate the effects of the chemotherapeutic agent gemcitabine in reducing cancer growth in vitro”.

What about the “proliferation of MIA PaCa2-Luc cancer cells” value [4] of the same molecule?
The value was “do not reduce the proliferation of MIA PaCa2-Luc cancer cells”.

What about the “potentiation of gemcitabine repression of FC1199 cell growth” value (FC1199 cells) of the same molecule?
The value was “did not potentiate the effects of gemcitabine in repressing of FC1199 cell growth”.

What about the “tumor burden in terms of pancreas weight, day 14” value (FC1199 orthotopic tumors [2]; Experiment 2, day 14, vs control) of the same molecule?
Its value is “effective in reducing the tumor burden in terms of reduced pancreas weight when compared to a control”.

What about the “tumor burden in terms of pancreas weight, day 25” value (FC1199 orthotopic tumors [2]; Experiment 2, day 25, vs control) of the same molecule?
The value was “effective in reducing the tumor burden in terms of reduced pancreas weight when compared to a control”.

And the “potentiation of the therapeutic effects of gemcitabine / chemotherapeutic agent in vivo” value (FC1199 orthotopic tumors [2])?
The value was “can potentiate the therapeutic effects of the standard chemotherapeutic agent gemcitabine”.

What about the “potentiation of the therapeutic effects of gemcitabine / chemotherapeutic agent in vivo” value (FC1199 orthotopic tumors [2]; listed as CCNp38) of the same molecule?
The value was “treat a solid tumor more effectively than the chemotherapeutic or immunotherapeutic agents alone”.

What about the “tumor burden / tumor growth as measured by pancreas weight” value (FC1199 orthotopic tumors [2]) of the same molecule?
The value was “effective in reducing the growth of orthotopic FC1199 tumor burden as measured by pancreas weight; also recorded: effective in reducing tumor growth and weight”.

And the “expansion and spread of the tumor and cancer cells” value (FC1199 orthotopic tumors [2]; overview FIG. 1)?
Its value is “blocking the expansion and spread of the tumor and cancer cells”.

And the “desmoplasia as measured by matrix deposition area” value (FC1199 orthotopic tumors [5])?
Its value is “effective in treating desmoplasia or stroma associated with a solid tumor; also recorded: a reduction in desmoplasia as measured by matrix deposition area”.

And the “angiogenesis as measured by vessel number/vessel density” value (FC1199 orthotopic tumors [6])?
The value was “reducing angiogenesis; also recorded: a reduction in angiogenesis as measured by vessel number/vessel density”.

And the “number of mice with ascites / ascites formation” value (FC1199 orthotopic tumors [7]; day 25, vs control)?
The value was “reducing the formation of ascites associated with a solid tumor; also recorded: effective in reducing the number of mice with ascites”.

And the inflammation (FC1199 orthotopic tumors [7]; inferred from ascites data)?
Its inflammation is “reduce inflammation”.

B1: full-length CCN3 molecule: full-length CCN3 protein of U.S. Pat. No. 7,780,949 (protein, UniProt P48745 1-357, looked up)
chain: MQSVQSTSFCLRKQCLCLTFLLLHLLGQVAATQRCPPQCPGRCPATPPTCAPGVRAVLDGCSCCLVCARQRGESCSDLEPCDESSGLYCDRSADPSNQTGICTAVEGDNCVFDGVIYRSGEKFQPSCKFQCTCRDGQIGCVPRCQLDVLLPEPNCPAPRKVEVPGECCEKWICGPDEEDSLGGLTLAAYRPEATLGVEVSDSSVNCIEQTTEWTACSKSCGMGFSTRVTNRNRQCEMLKQTRLCMVRPCEQEPEQPTDKKGKKCLRTKKSLKAIHLQFKNCTSLHTYKPRFCGVCSDGRCCTPHNTKTIQAEFQCSPGQIVKKPVMVIGTCTCHTNCPKNNEAFLQELELKTTRGKM
modifications: full-length
Which “fibrosis in an in vitro model of renal fibrosis” value (renal fibrosis) does the source give for B1 here?
Its value is “blocks fibrosis”.
